Test results reported in patent US12077503B2, “Substituted cyclic amides and their use as herbicides” (FMC CORPORATION, priority 2015, dated 2024).

Columns and labels:
Assay in all cases: Test C preemergence
Type in all cases: in vivo
[1] = system: Galium (catchweed bedstraw, Galium aparine); details: for Plant response rating, Galium: scale 0 to 100, 0 no effect, 100 complete control
Method in brief: (§1)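 Visual 0 (no effect) to 100 (complete control) ratings versus controls, taken 13–15 d after treatment in the greenhouse; dash means no result. Compounds in a surfactant-containing non-phytotoxic solvent blend were applied preemergence to seeds in loam-sand soil or postemergence to 1- to 4-leaf plants (2–18 cm) in peat-based medium.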

[2] = system: barnyardgrass (Echinochloa crus-galli); details: for Plant response rating, Barnyardgrass: scale 0 to 100, 0 no effect, 100 complete control
Method in brief: as §1

[3] = system: blackgrass (Alopecurus myosuroides); details: for Plant response rating, Blackgrass: scale 0 to 100, 0 no effect, 100 complete control
Method in brief: as §1

corn (Zea mays) = details: for Plant response rating, Corn: scale 0 to 100, 0 no effect, 100 complete control
Method in brief: as §1

[4] = system: crabgrass, large (large crabgrass, Digitaria sanguinalis); details: for Plant response rating, Crabgrass, Large: scale 0 to 100, 0 no effect, 100 complete control
Method in brief: as §1

[5] = system: foxtail, giant (giant foxtail, Setaria faberii); details: for Plant response rating, Foxtail, Giant: scale 0 to 100, 0 no effect, 100 complete control
Method in brief: as §1

[6] = system: johnsongrass (Sorghum halepense); details: for Plant response rating, Johnsongrass: scale 0 to 100, 0 no effect, 100 complete control
Method in brief: as §1

[7] = system: lambsquarters (Chenopodium album); details: for Plant response rating, Lambsquarters: scale 0 to 100, 0 no effect, 100 complete control
Method in brief: as §1

[8] = system: morningglory (Ipomoea coccinea); details: for Plant response rating, Morningglory: scale 0 to 100, 0 no effect, 100 complete control
Method in brief: as §1

[9] = system: nutsedge, yellow (yellow nutsedge, Cyperus esculentus); details: for Plant response rating, Nutsedge, Yellow: scale 0 to 100, 0 no effect, 100 complete control
Method in brief: as §1

[10] = system: oilseed rape (Brassica napus); details: for Plant response rating, Oilseed Rape: scale 0 to 100, 0 no effect, 100 complete control
Method in brief: as §1

[11] = system: ragweed (common ragweed, Ambrosia elatior); details: for Plant response rating, Ragweed: scale 0 to 100, 0 no effect, 100 complete control
Method in brief: as §1

[12] = system: ryegrass, Italian (Italian ryegrass, Lolium multiflorum); details: for Plant response rating, Ryegrass, Italian: scale 0 to 100, 0 no effect, 100 complete control
Method in brief: as §1

soybean (Glycine max) = details: for Plant response rating, Soybean: scale 0 to 100, 0 no effect, 100 complete control
Method in brief: as §1

[13] = system: velvetleaf (Abutilon theophrasti); details: for Plant response rating, Velvetleaf: scale 0 to 100, 0 no effect, 100 complete control
Method in brief: as §1

[14] = system: waterhemp (common waterhemp, Amaranthus rudis); details: for Plant response rating, Waterhemp: scale 0 to 100, 0 no effect, 100 complete control
Method in brief: as §1

[15] = system: wheat (winter wheat, Triticum aestivum); details: for Plant response rating, Wheat: scale 0 to 100, 0 no effect, 100 complete control
Method in brief: as §1

[16] = 31 g ai/ha, 0 is no effect, 100 is complete control

## CN1CC(c2ccc(C(F)(F)F)cc2)C(C(=O)Nc2ccccc2S(C)(=O)=O)C1=O (centres unmarked) [Compound 624]
[1]; [16]
  Plant response rating (scale of 0 to 100), Galium: 50
[1]; 62 g ai/ha
  Plant response rating, Galium: 85
[1]; 125 g ai/ha
  Plant response rating, Galium: 80
[1]; 250 g ai/ha
  Plant response rating, Galium: 85
[2]; [16]
  Plant response rating (scale of 0 to 100), Barnyardgrass: 75
[2]; 62 g ai/ha
  Plant response rating, Barnyardgrass: 90
[2]; 125 g ai/ha
  Plant response rating, Barnyardgrass: 95
[2]; 250 g ai/ha
  Plant response rating, Barnyardgrass: 95
[3]; [16]
  Plant response rating (scale of 0 to 100), Blackgrass: 50
[3]; 62 g ai/ha
  Plant response rating, Blackgrass: 70
[3]; 125 g ai/ha
  Plant response rating, Blackgrass: 90
[3]; 250 g ai/ha
  Plant response rating, Blackgrass: 90
Corn (Zea mays); [16]
  Plant response rating (scale of 0 to 100), Corn: 0
Corn (Zea mays); 62 g ai/ha
  Plant response rating, Corn: 0
Corn (Zea mays); 125 g ai/ha
  Plant response rating, Corn: 5
Corn (Zea mays); 250 g ai/ha
  Plant response rating, Corn: 65
[4]; [16]
  Plant response rating (scale of 0 to 100), Crabgrass, Large: 95
[4]; 62 g ai/ha
  Plant response rating, Crabgrass, Large: 100
[4]; 125 g ai/ha
  Plant response rating, Crabgrass, Large: 100
[4]; 250 g ai/ha
  Plant response rating, Crabgrass, Large: 98
[5]; [16]
  Plant response rating (scale of 0 to 100), Foxtail, Giant: 85
[5]; 62 g ai/ha
  Plant response rating, Foxtail, Giant: 90
[5]; 125 g ai/ha
  Plant response rating, Foxtail, Giant: 90
[5]; 250 g ai/ha
  Plant response rating, Foxtail, Giant: 95
[6]; [16]
  Plant response rating (scale of 0 to 100), Johnsongrass: 0
[6]; 62 g ai/ha
  Plant response rating, Johnsongrass: 0
[6]; 125 g ai/ha
  Plant response rating, Johnsongrass: 0
[6]; 250 g ai/ha
  Plant response rating, Johnsongrass: 25
[7]; [16]
  Plant response rating (scale of 0 to 100), Lambsquarters: 35
[7]; 62 g ai/ha
  Plant response rating, Lambsquarters: 40
[7]; 125 g ai/ha
  Plant response rating, Lambsquarters: 70
[7]; 250 g ai/ha
  Plant response rating, Lambsquarters: 60
[8]; [16]
  Plant response rating (scale of 0 to 100), Morningglory: 0
[8]; 62 g ai/ha
  Plant response rating, Morningglory: 0
[8]; 125 g ai/ha
  Plant response rating, Morningglory: 30
[8]; 250 g ai/ha
  Plant response rating, Morningglory: 35
[9]; [16]
  Plant response rating (scale of 0 to 100), Nutsedge, Yellow: 0
[9]; 62 g ai/ha
  Plant response rating, Nutsedge, Yellow: 0
[9]; 125 g ai/ha
  Plant response rating, Nutsedge, Yellow: 25
[9]; 250 g ai/ha
  Plant response rating, Nutsedge, Yellow: 50
[10]; [16]
  Plant response rating (scale of 0 to 100), Oilseed Rape: 75
[10]; 62 g ai/ha
  Plant response rating, Oilseed Rape: 80
[10]; 125 g ai/ha
  Plant response rating, Oilseed Rape: 85
[10]; 250 g ai/ha
  Plant response rating, Oilseed Rape: 85
[11]; [16]
  Plant response rating (scale of 0 to 100), Ragweed: 25
[11]; 62 g ai/ha
  Plant response rating, Ragweed: 55
[11]; 125 g ai/ha
  Plant response rating, Ragweed: 75
[11]; 250 g ai/ha
  Plant response rating, Ragweed: 80
[12]; [16]
  Plant response rating (scale of 0 to 100), Ryegrass, Italian: 10
[12]; 62 g ai/ha
  Plant response rating, Ryegrass, Italian: 40
[12]; 125 g ai/ha
  Plant response rating, Ryegrass, Italian: 30
[12]; 250 g ai/ha
  Plant response rating, Ryegrass, Italian: 30
Soybean (Glycine max); [16]
  Plant response rating (scale of 0 to 100), Soybean: 0
Soybean (Glycine max); 62 g ai/ha
  Plant response rating, Soybean: 0
Soybean (Glycine max); 125 g ai/ha
  Plant response rating, Soybean: 15
Soybean (Glycine max); 250 g ai/ha
  Plant response rating, Soybean: 40
[13]; [16]
  Plant response rating (scale of 0 to 100), Velvetleaf: 10
[13]; 62 g ai/ha
  Plant response rating, Velvetleaf: 30
[13]; 125 g ai/ha
  Plant response rating, Velvetleaf: 45
[13]; 250 g ai/ha
  Plant response rating, Velvetleaf: 65
[14]; [16]
  Plant response rating (scale of 0 to 100), Waterhemp: 85
[14]; 62 g ai/ha
  Plant response rating, Waterhemp: 90
[14]; 125 g ai/ha
  Plant response rating, Waterhemp: 90
[14]; 250 g ai/ha
  Plant response rating, Waterhemp: 100
[15]; [16]
  Plant response rating (scale of 0 to 100), Wheat: 0
[15]; 62 g ai/ha
  Plant response rating, Wheat: 35
[15]; 125 g ai/ha
  Plant response rating, Wheat: 45
[15]; 250 g ai/ha
  Plant response rating, Wheat: 80
